The values below come from PubChem BioAssay AID1000 (SRMLSC, 2008).

SMILES strings stand for the structures. Calls of active or inactive are those of the source.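 The calls were made as follows: active = over 20% inhibition at the single screening dose, then confirmed by dose response with half-maximal potency of 40 µM or better; inactive = the rest.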

The target of the first test is mevalonate kinase (Streptococcus pneumoniae D39). Nature of the test: mevalonate kinase inhibitor confirmation – biochemical, cuvette format, NADH absorbance 340 nm (AID 1000). The conditions noted are these: recombinant MK, PK/LDH coupled NADH absorbance 340 nm.
The IC50 is the concentration that gives 50% inhibition. With `O=C(NC1CC1)c1ccc(-n2sc3ccccc3c2=O)cc1`, the IC50 was 0.171 µM.
Turning to `O=C(NC1CC1)c1cccc(-n2sc3ccccc3c2=O)c1`, the IC50 is 0.197 µM.
As for `O=C(NC1CC1)c1ccccc1-n1sc2ccccc2c1=O`, the IC50 was 0.958 µM.
Consider `CCCN(CCC)C(=O)c1ccc(-n2sc3ccccc3c2=O)cc1`, for which the IC50 was 0.168 µM.
The same measure, in the same setting: with `CCCNC(=O)c1cccc(-n2sc3ccccc3c2=O)c1` the figure was 0.277 µM; with `Cc1ccc(-n2sc3ccccc3c2=O)cc1S(=O)(=O)N1CCCC1`, 0.083 µM; with `O=C(NCc1ccco1)c1ccc(-n2sc3ccccc3c2=O)cc1`, 0.157 µM.
Still for that read-out and setting: with `CCCNC(=O)c1ccc(-n2sc3ccccc3c2=O)cc1` the figure was 0.134 µM.
Still for that read-out and setting: with `O=C(NCc1ccco1)c1cccc(-n2sc3ccccc3c2=O)c1` the figure was 0.137 µM; with `O=C(NCc1ccco1)c1ccccc1-n1sc2ccccc2c1=O`, 0.579 µM.
With `CCN(CC)C(=O)c1ccccc1-n1sc2ccccc2c1=O`, the IC50 is 1.01 µM.
Take `O=C(c1ccc(-n2sc3ccccc3c2=O)cc1)N1CCOCC1`: the IC50 is 0.383 µM.
Regarding `CN(C)C(=O)c1cccc(-n2sc3ccccc3c2=O)c1`, the IC50 was 0.369 µM.
Take `O=C(c1cccc(-n2sc3ccccc3c2=O)c1)N1CCCCC1`: the half-maximal inhibitory concentration (IC50) is 0.244 µM.
Still for that read-out and setting: with `CN(C)C(=O)c1ccc(-n2sc3ccccc3c2=O)cc1` the figure was 0.389 µM.
Still for that read-out and setting: with `O=C(c1ccc(-n2sc3ccccc3c2=O)cc1)N1CCCC1` the figure was 0.198 µM; with `CCCN(CCC)C(=O)c1ccccc1-n1sc2ccccc2c1=O`, 0.795 µM; with `CN(C)C(=O)c1ccccc1-n1sc2ccccc2c1=O`, 0.754 µM.
`O=C(c1cccc(-n2sc3ccccc3c2=O)c1)N1CCOCC1`: the IC50 was 0.432 µM.
For the compound `O=C(c1ccccc1-n1sc2ccccc2c1=O)N1CCCCC1`, the IC50 was 0.531 µM.
The same measure, in the same setting: with `O=C(c1cccc(-n2sc3ccccc3c2=O)c1)N1CCCC1` the figure was 0.23 µM; with `O=C(c1ccccc1-n1sc2ccccc2c1=O)N1CCCC1`, 0.514 µM; with `Cc1ccc(-n2sc3ccccc3c2=O)cc1C(=O)N1CCCCC1`, 0.306 µM.
On to `O=C(NCc1ccccc1)c1ccccc1-n1sc2ccccc2c1=O`, for which the IC50 was 0.242 µM.
Consider `O=C(NCC1CC1)c1ccc(-n2sc3ccccc3c2=O)cc1`, for which the IC50 was 0.176 µM.
For `O=C(c1ccccc1-n1sc2ccccc2c1=O)N1CCOCC1`, the 50% inhibitory concentration (IC50) was 1.63 µM.
Still for that read-out and setting: with `CN1CCN(C(=O)c2ccc(-n3sc4ccccc4c3=O)cc2)CC1` the figure was 0.459 µM; with `O=C(NCc1ccccc1)c1cccc(-n2sc3ccccc3c2=O)c1`, 0.068 µM.
Consider `O=C(NCc1ccccc1)c1ccc(-n2sc3ccccc3c2=O)cc1`, for which the IC50 is 0.094 µM.
For `CCCN(CCC)C(=O)c1cccc(-n2sc3ccccc3c2=O)c1`, the IC50 was 0.304 µM.
With `O=c1c2ccccc2nc2n1CCC2NC(c1ccccc1)c1ccccc1` (configuration not stated), the IC50 was 17.3 µM.
Still for that read-out and setting: with `O=C(NCCN1CCCC1)c1ccc(-n2sc3ccccc3c2=O)cc1` the figure was 0.304 µM; with `O=C(c1ccc(-n2sc3ccccc3c2=O)cc1)N1CCCCC1`, 0.246 µM.
Same read-out and setting: with `CCN(CC)C(=O)c1ccc(-n2sc3ccccc3c2=O)cc1` the figure was 0.23 µM; with `CCN(CC)C(=O)c1cccc(-n2sc3ccccc3c2=O)c1`, 0.214 µM; with `CCCNC(=O)c1ccccc1-n1sc2ccccc2c1=O`, 0.381 µM.

Still in this test, the particulars now being: recombinant MK, PK/LDH coupled NADH absorbance 340 nm; at 100 µM; active compounds read high.
On to `O=c1c2ccccc2nc2n1CCC2SCCc1ccccc1` (configuration not stated), for which the inhibition result is “inactive”.
With `O=c1c2cc(Br)ccc2nc2n1CCC2`, the inhibition entry was “inactive”.
`Cc1cccc2c(=O)n3c(nc12)CCC3`: the inhibition entry is “inactive”.
Turning to `O=c1c2ccccc2nc2n1CCC2NC1CC1` (configuration not stated), the inhibition entry is “inactive”.
Turning to `Cc1ccc2nc3n(c(=O)c2c1)CCC3`, the inhibition entry is “inactive”.
Still for that read-out and setting: with `O=c1c2ccccc2nc2n1CCC2N1CCOCC1` (configuration not stated) the entry was “inactive”; with `O=c1c2ccccc2nc2n1CCC2(Br)Br`, “inactive”.
Same read-out and setting: with `O=c1c2cc(Cl)ccc2nc2n1CCC2` the entry was “inactive”; with `O=c1c2c(Cl)cccc2nc2n1CCC2`, “inactive”; with `COc1cccc(CCNC2CCn3c2nc2ccccc2c3=O)c1` (configuration not stated), “inactive”.
For `O=c1c2ccc(Cl)cc2nc2n1CCC2`, the inhibition result is “inactive”.
Same read-out and setting: with `COc1ccc(CSC2CCn3c2nc2ccccc2c3=O)cc1` (configuration not stated) the entry was “inactive”; with `O=c1c2cc(F)ccc2nc2n1CCC2`, “inactive”.
On to `COc1cccc2c(=O)n3c(nc12)CCC3`, for which the inhibition entry is “inactive”.
For `O=c1c2c(F)cccc2nc2n1CCC2`, the inhibition entry is “inactive”.
Still for that read-out and setting: with `O=c1c2cccc(Cl)c2nc2n1CCC2` the entry was “inactive”; with `COc1cc2nc3n(c(=O)c2cc1OC)CCC3`, “inactive”.
The same measure, in the same setting: with `COc1cccc2c(=O)n3c(nc12)/C(=C/c1ccc2c(c1)OCO2)CC3` the entry was “inactive”; with `O=c1c2ccccc2nc2n1CCC2SCc1ccccc1` (configuration not stated), “inactive”.
The same measure, in the same setting: with `O=c1c2ccccc2nc2n1CCC2N1CCC(Cc2ccccc2)CC1` (configuration not stated) the entry was “inactive”; with `O=c1c2ccc(F)cc2nc2n1CCC2`, “inactive”.
